Reference: patent US9878036B2, “Immunomodulatory compositions comprising a polymer matrix and an oil phase” (Sigmoid Pharma Limited, priority 2009, dated 2018)

System: BALB/c mice
Conditions: mouse, in vivo, po

**Q.** With “ovalbumin alone in solution: model antigen ovalbumin (200 μg/mouse) in bicarbonate buffer, oral comparator” as the substance, how does the “OVA-specific IgG antibodies in sera” value read?
**A.** variable IgG antibody responses
